Here are results for 4 compounds from article PMC13155482 (Science Advances, 2025).

SMILES strings stand for the structures. Where a chain is given by its changes, count along the chain named. Read-outs that look alike come from different tables or passages of the source.

By EC50 is commonly meant the concentration at which the effect is half-maximal. The low end stands for a more potent agent, the high end for a less potent agent.

Assay [1] deals with T1, 5-HT1A (Homo sapiens, UniProt P08908).
T1 sequence (P08908 1-422): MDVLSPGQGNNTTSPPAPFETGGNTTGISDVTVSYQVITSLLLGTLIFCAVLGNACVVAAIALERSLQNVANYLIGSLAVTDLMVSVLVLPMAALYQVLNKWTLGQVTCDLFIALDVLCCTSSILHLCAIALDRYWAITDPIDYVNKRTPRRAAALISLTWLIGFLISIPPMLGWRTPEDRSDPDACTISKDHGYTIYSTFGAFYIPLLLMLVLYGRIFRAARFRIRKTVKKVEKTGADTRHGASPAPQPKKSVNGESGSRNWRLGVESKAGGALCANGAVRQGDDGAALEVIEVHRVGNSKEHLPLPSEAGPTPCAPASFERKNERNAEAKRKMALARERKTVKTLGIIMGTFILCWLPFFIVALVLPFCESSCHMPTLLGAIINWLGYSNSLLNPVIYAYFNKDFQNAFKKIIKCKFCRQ
Kind of assay: 5-HT1A-mediated cAMP inhibition. The assay is classed as cell-based.

Assay [2] deals with T2, 5-HT1A F112A (Homo sapiens, UniProt P08908, F112A).
T2 sequence (P08908 1-422 F112A): T1 sequence (P08908 1-422) with F112A
As to conditions: Goa.

In assay [3] the target is T3, 5-HT1A S199A (Homo sapiens, UniProt P08908, S199A).
T3 sequence (P08908 1-422 S199A): T1 sequence (P08908 1-422) with S199A
As to conditions: Gi1, 5-HT1A S199A.

Assay [4] addresses T1, 5-HT1A. Kind of assay: BRET Gi1 activation at WT 5-HT1A. As to conditions: Gi1, WT 5-HT1A, compared to antagonist methiothepin.
The target in assay [5] is T3, 5-HT1A S199A. As to conditions: Gz.
A further assay has as its target T4, 5-HT1A I189A (Homo sapiens, UniProt P08908, I189A).
T4 sequence (P08908 1-422 I189A): T1 sequence (P08908 1-422) with I189A
As to conditions: 5-HT1A I189 mutant.

Another assay deals with T5, 5-HT1A A222V (Homo sapiens, UniProt P08908, A222V).
T5 sequence (P08908 1-422 A222V): T1 sequence (P08908 1-422) with A222V
As to conditions: Goa.

A further assay addresses T6, 5-HT1A, Gi1 D315P (Homo sapiens, UniProt P08908).
T6 sequence (P08908 1-422): T1 sequence (P08908 1-422)
As to conditions: activity comparable to vehicle.

Assay [6] deals with T3, 5-HT1A S199A. Kind of assay: cell-based. As to conditions: EC50, Goa.
Assay [7] addresses T1, 5-HT1A. In words: BRET Goa activation at WT 5-HT1A. A general note: Bioluminescence resonance energy transfer reports proximity on the nanometre scale.
Assay [8] addresses T2, 5-HT1A F112A. As to conditions: Gz.
Assay [9] concerns the target T2, 5-HT1A F112A. As to conditions: Gi1, 5-HT1A F112A.

As for `CN1CCN2c3ccccc3Cc3ccccc3C2C1` (stereo not drawn) [mianserin], the “agonist character in cAMP inhibition” value at 5-HT1A [1] (HEK293T, compared to 5-HT) is “nearly a full agonist”.
As for `CN1CC2c3ccccc3Oc3ccc(Cl)cc3C2C1` (stereo not drawn) [Asenapine], the “effect of F112A mutation on efficacy” value at 5-HT1A F112A [2] is on record as “seemingly ablates”. In addition, the “agonist character in cAMP inhibition” value on 5-HT1A [1] is given as “partial agonists”. Also, the “activation” value on 5-HT1A S199A [3] and on 5-HT1A S199A [5] was “no significant activity” each time. For the same compound, the “Gi1 activation” value at 5-HT1A [4] was “no significant activity”. In addition, the “effect of I189 mutation on activity” value on 5-HT1A I189A is “ablates asenapine activity”. The “Emax (%WT 5-HT)” value at 5-HT1A A222V is reported as 64.7 %WT 5-HT. For the same compound, on 5-HT1A, Gi1 D315P, the “signaling through Gi1 D315P” value is recorded as “loss of concentration-dependent agonist signaling”. For the same compound, the figures for the concentration for a half-maximal effect (EC50) at 5-HT1A S199A [6] and on 5-HT1A [7] were 6.84 nM and 9.12 nM, respectively.
As for `O=C1CC2(CCCC2)CC(=O)N1CCCCN1CCN(c2ncccn2)CC1` [Buspirone], the “effect of F112A mutation on efficacy” value at 5-HT1A F112A [2], on 5-HT1A F112A [8] and on 5-HT1A F112A [9] was “seemingly ablates efficacy” in each case.
Consider `O=C1CC2(CCCC2)CC(=O)N1CCCCN1CCN(c2nsc3ccccc23)CC1` [Tiospirone], for which the “agonist character in cAMP inhibition” value on 5-HT1A [1] (HEK293T, compared to 5-HT) is given as “partial agonists”.
